Molecules are shown by their SMILES. pKi: −log10 of the molar value. Read-outs that look alike come from different tables or passages of the source.

In general, pKi refers to the negative decadic logarithm of the Ki, by convention in mol/L.

For one data set, the target named is T1, α-mannosidase (jackbean) (Canavalia ensiformis, UniProt C0HJB3).
T1 construct: purchased Sigma Chemical Company
T1 sequence (C0HJB3 1-562 limits assumed): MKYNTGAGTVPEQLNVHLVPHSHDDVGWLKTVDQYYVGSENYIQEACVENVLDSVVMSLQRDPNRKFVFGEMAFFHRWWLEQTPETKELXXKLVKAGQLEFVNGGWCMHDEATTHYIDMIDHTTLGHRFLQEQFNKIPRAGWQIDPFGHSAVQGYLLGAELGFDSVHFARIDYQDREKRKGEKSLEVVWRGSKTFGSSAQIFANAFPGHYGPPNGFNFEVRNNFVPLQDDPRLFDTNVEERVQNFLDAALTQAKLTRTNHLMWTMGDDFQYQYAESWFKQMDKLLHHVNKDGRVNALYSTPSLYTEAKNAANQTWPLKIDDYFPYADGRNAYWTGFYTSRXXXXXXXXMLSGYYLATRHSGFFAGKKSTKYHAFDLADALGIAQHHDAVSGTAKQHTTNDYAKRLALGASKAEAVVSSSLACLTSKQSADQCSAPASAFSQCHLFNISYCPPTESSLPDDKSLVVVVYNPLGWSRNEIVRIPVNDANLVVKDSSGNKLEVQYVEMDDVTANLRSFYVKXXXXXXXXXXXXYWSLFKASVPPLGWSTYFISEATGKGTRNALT
T1 sequence (C0HJB3 563-981 limits assumed): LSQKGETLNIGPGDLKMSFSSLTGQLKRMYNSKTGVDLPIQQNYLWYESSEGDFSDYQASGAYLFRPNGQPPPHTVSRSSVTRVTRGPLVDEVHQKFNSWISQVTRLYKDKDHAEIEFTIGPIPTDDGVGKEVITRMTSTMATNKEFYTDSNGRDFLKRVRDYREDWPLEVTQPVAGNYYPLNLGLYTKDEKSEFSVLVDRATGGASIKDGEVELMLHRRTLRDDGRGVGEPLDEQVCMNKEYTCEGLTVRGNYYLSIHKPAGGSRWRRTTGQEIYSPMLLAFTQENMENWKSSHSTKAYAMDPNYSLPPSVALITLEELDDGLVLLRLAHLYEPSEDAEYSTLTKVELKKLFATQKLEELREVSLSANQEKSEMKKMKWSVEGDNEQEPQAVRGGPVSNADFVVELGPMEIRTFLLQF
The data set is described as follows: α-mannosidase inhibition, p-nitrophenol-α-mannopyranoside substrate. It counts as biochemical. The note with it: 25° C., citrate buffer 0.05M, pH 4.5; read-out: Ki (inhibition constant), α-Mannosidase. The procedure: (§1) The enzymes α-glucosidase (yeast), β-glucosidase (almonds), isomaltase (bakers yeast) and α-mannosidase (jackbean) were purchased from Sigma Chemical Company. Glucoamylase was isolated by the present inventors by expressing the gene from Aspergillus awamori in yeast, by methods well known in the art. Enzyme assays were performed by using p-nitrophenol -α (or β)-glucopyranosides as substrate at 37° C. in phosphate buffer (0.05M, pH 6.8) for α (β)-glucosidase and isomaltase, and p-nitrophenol-α-mannopyranoside as substrate at 25° C. in citrate (0.05M, pH 4.5) buffer for α-mannosidase. Glucoamylase was assayed using maltose as substrate at 50° C. in sodium acetate buffer (0.05M, pH 4.5).
(§2) Michaelis-Menten constant, Km, was calculated using software Grafit (Erithacus Software Ltd.). Ki was calculated by plotting K^appm vs. [Inhibitor]. FIG. 2(a) represents a plot of K^appm vs. [Inhibitor], wherein the inhibitor is the monosaccharide sugar analog isofagomin, obtained for five different glycosidases.

The target of data set [1] is T2, isomaltase (bakers yeast) (Saccharomyces cerevisiae, UniProt P53051).
T2 construct: purchased Sigma Chemical Company
Description: isomaltase inhibition, p-nitrophenol glucopyranoside substrate. It counts as biochemical. The procedure:
as §1
(§3) Michaelis-Menten constant, Km, was calculated using software Grafit (Erithacus Software Ltd.). Ki was calculated by plotting K^appm vs. [Inhibitor]. FIG. 2(a) represents a plot of K^appm vs. [Inhibitor], wherein the inhibitor is the monosaccharide sugar analog isofagomin, obtained for five different glycosidases. FIG. 2(b) represents a similar plot of K^appm vs. [Inhibitor], wherein the inhibitor is the disaccharide sugar analog of formula II, obtained for five different glycosidases.

For data set [2] the following is noted: in vivo; cited from earlier work.
Another data set deals with T3, lysosomal α-glucosidase (Rattus norvegicus, UniProt Q6P7A9).
T3 construct: host or cells: liver (in vivo)
The note with it: cited from earlier work.

The next data set addresses T4, Glucoamylase (Aspergillus awamori, UniProt P69327).
T4 construct: made in house; host or cells: yeast
Description: glucoamylase inhibition, maltose substrate. The class given is biochemical. The procedure: as §1, §2

The next data set addresses β-glucosidase (almonds). Description: β-glucosidase inhibition, p-nitrophenol-β-glucopyranoside substrate. It counts as biochemical. The note with it: for pKi: 37° C., phosphate buffer 0.05M, pH 6.8, read-out: Ki (inhibition constant), β-Glucosidase; for inhibition of β-glucosidase, in words: hydrochloride. The method, then: as §1, §3
A further data set has as its target T5, α-glucosidase (yeast) (Saccharomyces cerevisiae, UniProt P53341).
T5 construct: purchased Sigma Chemical Company
The data set is described as follows: α-glucosidase inhibition, p-nitrophenol-α-glucopyranoside substrate. The class given is biochemical. The following applies: 37° C., phosphate buffer 0.05M, pH 6.8; read-out: Ki (inhibition constant), α-Glucosidase. The procedure: as §1, §2

Data set [3] relates to cellulase degradation of wood. The data set is described as follows: wood treatment, cellulase degradation. The following applies: approximately 10 mg/kg of wood per day, several months of treatment. The procedure: A wood treatment composition containing approximately 10 mg/kg of wood per day of isofagomin is administered to a piece of wood. After several months of treatment, the piece of wood is analyzed.

Data set [4] concerns glycohydrolase degradation of crop. Description: agricultural crop treatment, glycohydrolase degradation. The note with it: approximately 10 mg/kg of crop per day, several months of treatment. The method, then:
A composition for treating agricultural crops containing approximately 10 mg/kg of crop per day of isofagomin is administered to a crop. After several months of treatment, the crop is analyzed.

The mark [5] stands for this setting: maltose substrate, 50° C., sodium acetate buffer 0.05M, pH 4.5, read-out: Ki (inhibition constant), Glucoamylase.
[6] abbreviates: 37° C., phosphate buffer 0.05M, pH 6.8, read-out: Ki (inhibition constant), Isomaltase.

T2 sequence (P53051 whole entry): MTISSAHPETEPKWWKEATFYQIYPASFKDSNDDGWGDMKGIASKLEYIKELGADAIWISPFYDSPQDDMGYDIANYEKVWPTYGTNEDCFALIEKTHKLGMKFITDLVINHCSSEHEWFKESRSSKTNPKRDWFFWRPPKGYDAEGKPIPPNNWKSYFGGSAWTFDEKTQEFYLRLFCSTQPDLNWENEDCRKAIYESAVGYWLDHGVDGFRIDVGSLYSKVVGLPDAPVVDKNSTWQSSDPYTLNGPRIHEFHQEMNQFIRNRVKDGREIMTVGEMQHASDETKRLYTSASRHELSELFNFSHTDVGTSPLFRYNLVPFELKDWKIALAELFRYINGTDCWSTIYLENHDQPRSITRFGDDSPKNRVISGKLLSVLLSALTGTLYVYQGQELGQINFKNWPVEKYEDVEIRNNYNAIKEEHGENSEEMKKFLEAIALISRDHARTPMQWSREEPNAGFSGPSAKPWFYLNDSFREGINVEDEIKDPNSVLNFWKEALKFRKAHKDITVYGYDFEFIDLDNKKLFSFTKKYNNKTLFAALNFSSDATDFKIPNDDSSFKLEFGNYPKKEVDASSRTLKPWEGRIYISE
T4 sequence (P69327 25-640): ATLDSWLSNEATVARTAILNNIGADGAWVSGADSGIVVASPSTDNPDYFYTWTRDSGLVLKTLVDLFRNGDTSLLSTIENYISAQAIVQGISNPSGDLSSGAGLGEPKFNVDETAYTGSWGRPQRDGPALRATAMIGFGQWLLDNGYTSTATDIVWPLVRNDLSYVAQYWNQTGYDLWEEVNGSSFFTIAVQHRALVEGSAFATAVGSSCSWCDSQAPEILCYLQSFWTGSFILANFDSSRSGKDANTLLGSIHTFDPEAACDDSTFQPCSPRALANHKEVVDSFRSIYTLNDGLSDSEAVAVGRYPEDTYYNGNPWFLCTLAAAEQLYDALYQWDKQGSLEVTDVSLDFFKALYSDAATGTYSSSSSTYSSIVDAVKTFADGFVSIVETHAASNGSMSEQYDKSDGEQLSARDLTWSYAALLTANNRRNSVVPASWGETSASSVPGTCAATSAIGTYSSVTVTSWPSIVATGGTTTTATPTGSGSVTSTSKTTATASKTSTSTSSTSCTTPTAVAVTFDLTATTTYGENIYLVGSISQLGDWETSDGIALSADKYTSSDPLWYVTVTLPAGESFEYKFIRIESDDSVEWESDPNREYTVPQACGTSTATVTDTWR
T5 sequence (P53341 whole entry): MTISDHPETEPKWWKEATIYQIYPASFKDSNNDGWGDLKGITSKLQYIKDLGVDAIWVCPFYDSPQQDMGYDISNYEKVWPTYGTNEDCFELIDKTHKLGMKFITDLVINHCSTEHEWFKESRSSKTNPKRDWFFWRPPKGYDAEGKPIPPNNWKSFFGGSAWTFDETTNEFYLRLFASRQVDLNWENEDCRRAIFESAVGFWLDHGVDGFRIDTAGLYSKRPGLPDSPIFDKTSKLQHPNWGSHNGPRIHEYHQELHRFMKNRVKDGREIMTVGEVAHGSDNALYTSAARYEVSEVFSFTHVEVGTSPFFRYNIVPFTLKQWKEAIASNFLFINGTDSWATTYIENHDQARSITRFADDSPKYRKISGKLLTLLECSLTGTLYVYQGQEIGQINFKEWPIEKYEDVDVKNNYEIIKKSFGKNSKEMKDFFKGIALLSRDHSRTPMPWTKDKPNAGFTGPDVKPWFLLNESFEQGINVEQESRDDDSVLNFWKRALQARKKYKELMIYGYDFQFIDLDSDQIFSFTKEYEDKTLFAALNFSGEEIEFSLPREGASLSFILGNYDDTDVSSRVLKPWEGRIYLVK
T3 sequence (Q6P7A9 70-953): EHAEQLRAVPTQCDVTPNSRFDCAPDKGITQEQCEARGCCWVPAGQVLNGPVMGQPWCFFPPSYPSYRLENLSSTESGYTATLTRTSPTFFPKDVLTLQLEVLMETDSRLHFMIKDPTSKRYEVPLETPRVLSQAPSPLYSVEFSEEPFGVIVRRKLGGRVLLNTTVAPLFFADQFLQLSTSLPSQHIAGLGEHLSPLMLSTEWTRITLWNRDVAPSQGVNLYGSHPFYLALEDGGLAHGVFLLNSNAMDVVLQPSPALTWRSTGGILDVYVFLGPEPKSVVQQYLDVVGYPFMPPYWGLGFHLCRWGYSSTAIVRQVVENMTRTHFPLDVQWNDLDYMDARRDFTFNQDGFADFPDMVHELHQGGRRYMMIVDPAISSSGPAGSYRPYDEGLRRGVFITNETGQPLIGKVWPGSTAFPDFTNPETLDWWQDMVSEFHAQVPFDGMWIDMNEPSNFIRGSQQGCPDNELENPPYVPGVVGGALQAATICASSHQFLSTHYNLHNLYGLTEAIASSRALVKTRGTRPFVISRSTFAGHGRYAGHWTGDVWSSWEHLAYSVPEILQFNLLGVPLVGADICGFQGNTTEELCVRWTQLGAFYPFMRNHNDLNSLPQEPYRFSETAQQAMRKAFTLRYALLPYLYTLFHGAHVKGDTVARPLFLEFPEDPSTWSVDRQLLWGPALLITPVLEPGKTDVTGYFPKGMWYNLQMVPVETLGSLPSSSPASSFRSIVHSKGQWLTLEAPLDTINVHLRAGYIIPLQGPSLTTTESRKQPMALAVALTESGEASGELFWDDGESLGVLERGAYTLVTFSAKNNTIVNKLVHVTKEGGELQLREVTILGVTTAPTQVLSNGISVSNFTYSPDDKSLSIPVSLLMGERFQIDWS

`C[C@H]1O[C@H](O[C@H]2[C@H](O)[C@@H](O)[C@@H](O[C@H]3[C@H](O)[C@@H](O)C(O)O[C@@H]3CO)O[C@@H]2CO)[C@H](O)[C@@H](O)[C@@H]1N[C@H]1C=C(CO)[C@@H](O)[C@H](O)[C@H]1O` (stereo partly shown) [Acarbose, acarbose, reference compound]: the pKi is 2.12 on α-mannosidase (jackbean) and under 4.00 in data set [1].
Consider `O[C@H]1[C@H](O)[C@@H](O)CN2CC[C@H](O)[C@H]12` [Castanospermine], for which the “minimum effective dose required to reduce the glycemic response to sucrose” value in [2] was 1 mg/kg. Further, the “accumulation of lysosomal glycogen” value at lysosomal α-glucosidase (at the minimum effective dose (1 mg/kg)) is on record as “Accumulation of lysosomal glycogen has been found”.
For `OC[C@H]1NC[C@@H](O)[C@@H](O)[C@@H]1O` [Deoxymannojirimycin, reference compound], the pKi is 4.31 in [1], 4.18 on Glucoamylase (setting [5]) and […] at β-glucosidase (almonds).
For `OC[C@H]1NC[C@H](O)[C@@H](O)[C@@H]1O` [Deoxynojirimycin, reference compound] the same measures were 4.95, 5.01 and […].
On to `Cl.OC[C@H]1CNC[C@@H](O)[C@@H]1O` [MB, (3R,4R,5R)-3,4-dihydroxy-5-hydroxymethyl-piperidine hydrochloride], for which the negative-log Ki (pKi) on α-glucosidase (yeast) was 4.07; on α-mannosidase (jackbean), 3.11; in [1] (setting [6]), 5.14; at Glucoamylase (setting [5]), 5.43; at β-glucosidase (almonds) it was 6.96. For the same compound, in [3], the “cellulase degradation of treated wood” value is “No cellulase degradation is detected”. Besides, the “glycohydrolase degradation of treated crop” value in [4] is given as “No glycohydrolase degradation is detected”. In the data set with β-glucosidase (almonds) (FIG. 1(a), three inhibitor concentrations), the “mode of inhibition of β-glucosidase (Lineweaver-Burk plot)” value is listed as “competitive inhibition”. Also, the “inhibition of β-glucosidase, in words” value with β-glucosidase (almonds) is reported as “surprisingly strong inhibitor”; with β-glucosidase (almonds) (listed as monosaccharide analog) it was “particularly strong inhibitor”.
With `CO[C@H]1O[C@H](CN2C[C@H](O)[C@@H](O)[C@H](O)[C@H]2CO)[C@@H](O)[C@H](O)[C@H]1O` [MDL, 1,5-dideoxy-1,5-[(6-deoxy-1-O-methyl-6-α,D-glucopyranosyl)imino]-D-glucitol], the “effect on liver lysosomal α-glucosidase activity or glycogen accumulation” value at lysosomal α-glucosidase (dose 10-fold higher than required to reduce the glycemic response to sucrose) is reported as “did not affect”.
Take `CO[C@H]1O[C@H](CCN2C[C@H](CO)[C@@H](O)[C@H](O)C2)[C@@H](O)[C@H](O)[C@H]1O` [TMJ, Methyl 6,7-dideoxy-7-[(3R,4R,5R)-3,4-dihydroxy-5-hydroxymethyl-piperidinyl]-α-D-gluco-heptopyranoside]: the pKi on α-glucosidase (yeast) is 4.23; at α-mannosidase (jackbean), 2.91; in [1] (setting [6]), 3.99; on Glucoamylase, 7.20.

The values above are taken from patent US5844102A, “Glycohydrolase inhibitors, their preparation and use thereof” (University of Maryland Baltimore County, priority 1994, dated 1998).
